Laboratory results published in the NIST ThermoML archive (doi:10.1016/j.jct.2010.06.011).
Numbers after ± are expanded uncertainties.

Assay: xn = mol fraction of the nth substance listed
Conditions: Liquid, Vibrating tube method

COC(=O)OC [dimethyl carbonate] + CCCCCC
mass density [kg/m3]
Conditions	100 kPa	5000 kPa	10000 kPa	20000 kPa	30000 kPa	40000 kPa
303.15 K, x1 = 0.1	–	–	–	695.6 ± 0.4	704.3 ± 0.5	712.2 ± 0.6
303.15 K, x1 = 0.2	–	–	–	723.3 ± 0.4	732.2 ± 0.5	740.2 ± 0.6
303.15 K, x1 = 0.3	–	–	–	753.7 ± 0.4	762.7 ± 0.5	770.9 ± 0.5
303.15 K, x1 = 0.4	–	–	–	787.2 ± 0.4	796.3 ± 0.4	804.6 ± 0.5
303.15 K, x1 = 0.5	–	–	–	824.1 ± 0.4	833.3 ± 0.4	841.6 ± 0.5
303.15 K, x1 = 0.6	–	–	–	865 ± 0.4	874.1 ± 0.4	882.3 ± 0.4
303.15 K, x1 = 0.7	–	–	–	909.8 ± 0.3	918.7 ± 0.3	926.9 ± 0.3
303.15 K, x1 = 0.8	–	–	–	959.7 ± 0.3	968.5 ± 0.3	976.5 ± 0.3
303.15 K, x1 = 0.9	–	–	–	1015.1 ± 0.3	1023.6 ± 0.3	1031.4 ± 0.3
303.15 K, x1 = 0.95	–	–	–	1044.2 ± 0.3	1052.6 ± 0.3	1060.2 ± 0.3
303.15 K, x1 = 1	–	–	–	1074.7 ± 0.3	1082.9 ± 0.3	1090.4 ± 0.4
308.15 K, x1 = 0.1	669.8 ± 0.3	675.7 ± 0.3	681.4 ± 0.4	691.5 ± 0.4	700.6 ± 0.5	–
308.15 K, x1 = 0.2	696.9 ± 0.3	703 ± 1.3	708.7 ± 0.4	719 ± 0.4	728.3 ± 0.5	–
308.15 K, x1 = 0.3	727 ± 0.3	733.1 ± 0.8	738.8 ± 0.4	749.3 ± 0.4	758.7 ± 0.5	–
308.15 K, x1 = 0.4	760.2 ± 0.3	766.3 ± 0.5	772 ± 0.3	782.6 ± 0.4	792.1 ± 0.4	–
308.15 K, x1 = 0.5	796.9 ± 0.3	802.9 ± 0.4	808.7 ± 0.4	819.2 ± 0.4	828.8 ± 0.4	–
308.15 K, x1 = 0.6	837.4 ± 0.3	843.8 ± 0.3	849.5 ± 0.3	859.9 ± 0.4	–	–
308.15 K, x1 = 0.7	882.5 ± 0.3	888.6 ± 1.5	894.2 ± 0.3	904.4 ± 0.3	–	–
308.15 K, x1 = 0.8	932.8 ± 0.3	938.7 ± 0.4	944.1 ± 0.3	954.1 ± 0.3	–	–
308.15 K, x1 = 0.9	989.2 ± 0.3	994.6 ± 0.3	999.7 ± 0.3	1009.3 ± 0.3	–	–
308.15 K, x1 = 0.95	1018.8 ± 0.3	1023.8 ± 0.3	1028.8 ± 0.3	1038.1 ± 0.3	–	–
308.15 K, x1 = 1	1049.8 ± 0.3	1054.6 ± 0.3	1059.4 ± 0.3	1068.5 ± 0.3	–	–
